Data from patent US6479548B2, “Substituted stilbenes as glucose uptake enhancers” (Telik, Inc., priority 2000, dated 2002).

Experiments:
[1] = biological target: T1, complete β-kinase domain of the human insulin receptor (CKD) (Homo sapiens, UniProt P06213); assay: 32P-CKD autophosphorylation assay; type: biochemical; conditions: compound at 10 μM, phosphorylation of CKD expressed as % of the vehicle level; for activity at 10 µM: 10 min, read-out: Activity (% vs. control)
T1 construct: The complete β-kinase domain of the human insulin receptor (CKD); made in house
T1 sequence (P06213 1023-1298 limits assumed): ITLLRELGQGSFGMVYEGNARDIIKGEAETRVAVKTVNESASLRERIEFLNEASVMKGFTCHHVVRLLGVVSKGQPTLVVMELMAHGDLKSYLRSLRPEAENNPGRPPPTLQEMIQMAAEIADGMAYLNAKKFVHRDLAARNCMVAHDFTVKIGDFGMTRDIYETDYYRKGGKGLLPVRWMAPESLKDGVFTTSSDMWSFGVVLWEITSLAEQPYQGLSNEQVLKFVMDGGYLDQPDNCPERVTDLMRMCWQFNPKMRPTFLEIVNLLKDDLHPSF
Protocol: The complete β-kinase domain of the human insulin receptor (CKD) was expressed in, and purified from, baculovirus. CKD (4.0 μg/ml), in a solution of 29 mM HEPES (pH 7.6), 0.05% Triton X-100, 10 mM MgCl2, 2 mM MnCl2 (50 μl final volume), is combined with 50 μM ATP, and 5 μCi ^32P-ATP (3000 Ci/mmol).

3T3 L1 fibroblasts = assay: Glucose transport activity (14C-2-deoxy-D-glucose uptake); type: cell-based; conditions: concentration producing increase in glucose transport that is 50% of the response of 100 nM insulin (5.6 nM insulin as lower bound), tested 1 μM to 56 μM
Protocol: 3T3 L1 fibroblasts (ATCC) were grown in Dulbecco's modified Eagle's medium (DMEM) with 10% fetal bovine serum (FBS). The cells were plated at a density of 3×10^4 cells/well in 24-well plates. Two days after confluence was reached, the cells were treated for 3 days with 0.5 mM isobutylmethylxanthine (IBMX), 1 μM dexamethasone, and 1.7 μM insulin. The cells were then transferred to DMEM with 1.7 μM insulin for 2 more days. The cells were maintained in DMEM with 10% FBS for an additional 4 days. Finally, the cells were serum-starved overnight in 0. 1% bovine serum albumin (BSA) in DMEM. The following day, the medium was replaced with 150 mM NaCl, 1.7 mM KCl, 0.9 mM CaCl2, K2HPO4 (pH 7.4), to which was added either the experimental compound or its vehicle (DMSO). Insulin or its vehicle (0.01% BSA) was diluted in the assay buffer (containing test compound or vehicle, respectively) to a final concentration of 5.6 nM. After incubation for 30 min at 37° C., 5 μCi/ml ^14C-2-deoxy-D-glucose was added, and the incubation was continued for an additional 30 min at 37° C. The cells were then washed 3 times with ice-cold PBS/20 mM glucose and lysed in 250 μl of lysis buffer (50 mM HEPES pH 7.6, 1% Triton X-100) for 30 min at room temperature. Radioactivity in the lysate was quantified by scintillation counting.
Once ^14C-2-deoxy-D-glucose is transported into the cell, it is not released. Glucose transport is, therefore, proportional to the amount of radioactivity in the lysate. […] The concentration of compound necessary to produce an increase in glucose transport that is 50% of the response of 100 nM insulin (using 5.6 nM insulin as the lower bound) was calculated as the EC50 (effective concentration).

Compound	activity at 10 µM [1]	EC50 (3T3 L1 fibroblasts; Mus musculus, 3T3-L1)	Activity (% vs. control) [1]	EC50 (3T3 L1 fibroblasts)
CNc1ccc(C(=O)Nc2ccc(/C=C/c3ccc(C(=O)O)cc3)cc2C(=O)O)cc1 [Compound 23, 5-[(1E)-2-(4-carboxyphenyl)vinyl]-2-{[4-(methylamino)phenyl]carbonylamino}-benzoic acid]	112%	98 µM		
5-((1E)-2-phenylvinyl)-2-({4-[(4-carboxyphenyl)-N-methylcarbonylamnino]phenyl}-N-methylcarbonylamino)benzoic acid [Compound 20]			112%	109 µM
O=C(O)Cc1ccc(/C=C/c2ccc(NC(=O)c3ccccc3C(=O)O)cc2)cc1 [Compound 24, 2-[N-(4-{(1E)-2-[4-(carboxymethyl)phenyl]vinyl}phenyl)carbamoyl]benzoic acid]	126%	414 µM		
